Columns and labels:
[1] = system: Lineage-CD11b+ monocytes in peripheral blood; test: Monocyte analysis and counting after adjuvant injection in mice; format: in vivo, C57BL/6 mice; settings: Example 12, single i.m. injection
Protocol: (§1) 24-Hours after injection of the TLR adjuvants, peripheral blood was drawn from C57BL/6 mice via cardiac puncture with lithium-heparin as anticoagulant. Red blood cell lysis was performed twice on pooled blood with Ammonium Chloride-based Buffer (Sigma, Steinheim, Germany) and cells were counted with the EasyCount™ System (Immunicon). […] Cells were finally washed three times and fixed for 15 min. with a 2% paraformaldehyde solution in PBS. Fluorescence minus one (FMO) controls were always included in the assays for fluorescent compensation setting. Samples were acquired on a flow cytometer (BD FACSCanto II) and data analyzed with the FACSDiva software (BD Biosciences). Monocytes were identified by their Side/Forward scatter properties and gated as CD3-/CD45R/B220-/Ly-6G-/NK1.1-(Lineage-)/CD11b+ cells. CD11b+ monocyte frequency was reported as a percentage of the total cells excluding debris.
as §1, with “24 hours” for “24-Hours”, “each immunomodulator,” for “the TLR adjuvants,”, “min” for “min.”, “monocytes” for “monocyte”
Cells were finally washed twice and fixed for 15 min. with a 2% paraformaldehyde solution in PBS. FMOs controls were always included in the assays. Samples were acquired on a flow cytometer (BD FACSCanto II) and data analyzed with the FACSDiva software (BD Biosciences). Monocytes were identified and counted by their Side/Forward scatter properties, excluding debris and gated as CD3-/CD45R/B220-/Ly-6G-/NK1.1-(Lineage-)/CD11 b+ cells.

CD11b+ monocytes = test: In vivo uptake assay of Aβ42 after immunization or passive immunotherapy; set-up: species or system C57BL/6 mice; settings: Example 20
Protocol: Mice: C57BL/6 female mice were purchased from Charles River. […]
[…] At day 22, 5 μg per mouse of fluorescent HiLyte Fluor™ 488-labeled Amyloid β1-42 (Anaspec, Fremont, Calif.) was injected in the tail vein. […] Plasma of pooled blood was decanted and saved for measurement of antibody titres by ELISA. Red blood cell lysis was performed twice with Ammonium Chloride-based Buffer (Sigma, Steinheim, Germany) and cells were counted with the EasyCount™ System (Immunicon).
FACS analysis: 500,000 cells were aliquoted in a 96-well plate, washed once, incubated for 10 min. on ice in the presence of Rat anti-Mouse CD16/CD32 (clone 2.4G2—BD Fc Block™) and further stained for 30 min. with a combination of the following directly conjugated antibodies at their pre-determined optimal concentration: PE-Hamster anti-Mouse CD3 (clone 145-2C11), Rat anti-Mouse CD45R/B220 (clone RA3-6B2), Rat anti-Mouse Ly-6G (clone 1A8), Mouse anti-Mouse NK1.1 (clone PK136), APC-conjugated Rat anti-Mouse CD11b (clone M1/70), PE-Cy7-conjugated Hamster anti-Mouse CD11c (clone HL3), (all from BD PharMingen). Cells were finally washed twice and fixed for 15 min. with a 2% paraformaldehyde solution in PBS. FMOs controls were always included in the assays.
Samples were acquired on a flow cytometer (BD FACSCanto II) and data analyzed with the FACSDiva software (BD Biosciences).
Monocytes were identified by their Side/Forward scatter properties, excluding debris and gated as CD3-/CD45R/B220-/Ly-6G-/NK1.1-(Lineage-)/CD11b+ cells. Aβ uptake was assessed by reporting the percentage and Mean Fluorescence Intensity (GeoMean) of positive HiLyte Fluor™ 488 Aβ1-42 cells among gated monocytes.
Mice were passively immunized with a constant dose of anti Aβ monoclonal antibody (15 ug of 2E7)+different dose of immunomodulators (CRX601 or CRX601/AS03 or AS01B). […] Red blood cell lysis was performed twice with Ammonium Chloride-based Buffer (Sigma, Steinheim, Germany) and cells were counted with the EasyCount™ System (Immunicon). […]

## CCCCCCCCCCC[C@H](CC(=O)N[C@H]1[C@H](OC[C@H](NC(=O)C[C@@H](CCCCCCCCCCC)OCCCCCCCCCC)C(=O)O)O[C@H](CO)[C@@H](OP(=O)(O)O)[C@@H]1OC(=O)C[C@@H](CCCCCCCCCCC)OCCCCCCCCCC)OCCCCCCCCCC [CRX601]
[1]
  monocyte effect at 20 μg dose: down modulated
[1]; 0.2 to 20 ug/mouse
  dose of maximum monocyte response: 10 µg
[1]; 24 hrs, compared to PBS
  dose enough to trigger an increase of the monocyte count: 1 µg
CD11b+ monocytes; CRX601 20 ug with AS03
  antibody-mediated Aβ uptake when combined with AS03 emulsion: partially quenched
CD11b+ monocytes; CRX601 at 20 ug single i.m., 15 ug of 2E7, 24 hrs
  antibody-mediated Aβ uptake: highest Aβ uptake
CD11b+ monocytes; different doses, constant 2E7
  dose dependence of antibody-mediated Aβ uptake: Dose-response observed

Source: patent publication US20140294849A1, “COMPOSITIONS AND USES” (GLAXOSMITHKLINE BIOLOGICALS SA, priority 2011, published 2014)
